Here are results for 9 compounds from ChEMBL document CHEMBL3232975, “Using ovality to predict nonmutagenic, orally efficacious pyridazine amides as cell specific spleen tyrosine kinase inhibitors” (J Med Chem, 2014).

Values after ≈ are worked out from the molar mass of the structure shown.

The nature of series [1]: Solubility of the compound by LYSA. The format is physicochemical.
The nature of series [2]: Metabolic stability in human liver microsomes. The format is ADME. To be noted: read-out: Stability. (Liver microsomes are a subcellular fraction often used to study metabolism.)
Series [3] is described as follows: Metabolic stability in rat liver microsomes. The format is ADME. The conditions noted are these: read-out: Stability.
Series [4] in a line: Total plasma clearance in mouse at 0.5 mg/kg, iv. The format is ADME, organism-based. On the set-up: dose 0.5 mg/kg, route intravenous.
Series [5] can be described thus: Volume of distribution at steady state in mouse at 0.5 mg/kg, iv. The format is ADME, organism-based. On the set-up: dose 0.5 mg/kg, route intravenous. The conditions noted are these: in vivo, read-out: Vdss.
The nature of series [6]: Apparent terminal half life in mouse at 0.5 mg/kg, iv. The format is ADME, organism-based. On the set-up: dose 0.5 mg/kg, route intravenous. To be noted: in vivo, read-out: betat1/2(app) (converted).
A short description of series [7]: Cmax in mouse at 30 mg/kg, po. On the set-up: dose 30 mg/kg, route oral. The format is ADME, organism-based. The conditions noted are these: in vivo.
In series [8] the test system is Mus musculus. The series can be described thus: Dose-normalized AUC in mouse at 30 mg/kg, po. On the set-up: dose 30 mg/kg, route oral. To be noted: in vivo. The format is ADME, organism-based.
The nature of series [9]: Oral bioavailability in mouse at 30 mg/kg. The format is ADME, organism-based. To be noted: in vivo.
Series [10] relates to Mus musculus. The series can be described thus: Dose-normalized AUC in mouse at 5 mg/kg, po. The format is ADME, organism-based. On the set-up: dose 5 mg/kg, route oral. To be noted: in vivo.
Series [11] in a line: Oral bioavailability in mouse at 5 mg/kg. The format is ADME, organism-based. The conditions noted are these: in vivo.
Series [12] is described as follows: Cmax in mouse at 5 mg/kg, po. The format is ADME, organism-based. On the set-up: dose 5 mg/kg, route oral. To be noted: in vivo.
Series [13] is described as follows: Total plasma clearance in mouse at 1 mg/kg, iv. The format is ADME, organism-based. On the set-up: dose 1 mg/kg, route intravenous.
Series [14] is described as follows: Apparent terminal half life in mouse at 1 mg/kg, iv. The format is ADME, organism-based. The conditions noted are these: in vivo, read-out: betat1/2(app) (converted). On the set-up: dose 1 mg/kg, route intravenous.
The nature of series [15]: Volume of distribution at steady state in mouse at 1 mg/kg, iv. To be noted: in vivo, read-out: Vdss. On the set-up: dose 1 mg/kg, route intravenous. The format is ADME, organism-based.
Series [16] relates to Mus musculus. The series can be described thus: Dose-normalized AUC in mouse at 10 to 20 mg/kg, po. The conditions noted are these: in vivo. The format is ADME, organism-based. On the set-up: dose 10-20 mg/kg, route oral.
Series [17] can be described thus: Oral bioavailability in mouse at 10 to 20 mg/kg. The format is ADME, organism-based. To be noted: in vivo.

One may read the solubility as the concentration that dissolves in the medium under given conditions. As usually defined, the clearance is a measure of how efficiently the substance is removed, as volume per time. A low value points to a low capacity for elimination. As usually defined, the Cmax is the peak of the concentration-time curve. By bioavailability is commonly meant the share of a dose that reaches the circulation, judged against a reference dose that is usually intravenous. A high value points to much systemic uptake. For the compound `Cc1nc(Nc2cc(N[C@@H]3CCCC[C@@H]3N)nnc2C(N)=O)ccc1F`, in series [1], the concentration in solution (solubility) came to 390 µg/mL (≈ 1090 µM). The values for the CLhep predicted in [2] and in series [3] were 3 mL/min/kg and 18 mL/min/kg, respectively. This compound also came in with a clearance in series [4] of 5.57 mL/min/kg. Moreover, the Vd in [5] was determined as 1.44 L/kg. Further, in [6], the half-life was 3.26 h. In addition, in series [7], the highest concentration (Cmax) worked out at 1560 ng/mL. For the same compound, the AUC/dose with Mus musculus [8] is 568 ng/mL.hr/(mg/kg). The compound also showed a bioavailability in [9] of 20%.

Compound `Cc1nc(Nc2cc(N[C@@H]3CCCC[C@@H]3N)nnc2C(N)=O)ccc1Cl` yielded a solubility in series [1] of 345 µg/mL (≈ 918 µM). Moreover, the CLhep predicted in [2] is 7 mL/min/kg; in series [3] it was 20 mL/min/kg. Also, the clearance in series [4] turned out to be 8.65 mL/min/kg. The Vd in series [5] is 2.74 L/kg. Moreover, in series [6], the half-life was 3.92 h. Further, the figures for the maximum concentration (Cmax) in [7] and in series [12] were 144 ng/mL and 386 ng/mL, respectively. The figures for the AUC/dose with Mus musculus [8] and with Mus musculus [10] were 9753 ng/mL.hr/(mg/kg) and 970 ng/mL.hr/(mg/kg), respectively. In addition, the bioavailability in series [9] amounted to 40%; in series [11], 51%.

Turning to `Cc1ccc(Nc2cc(N[C@@H]3CCCC[C@@H]3N)nnc2C(N)=O)nc1C`, in series [1], the solubility is 329 µg/mL (≈ 926 µM). Moreover, the CLhep predicted is 1 mL/min/kg in [2] and 23 mL/min/kg in series [3]. Also, the AUC/dose in the series on Mus musculus [10] is reported as 25.9 ng/mL.hr/(mg/kg).

`NC(=O)c1nnc(N[C@@H]2CCCC[C@@H]2N)cc1Nc1ccc2c(n1)CCC2`: the solubility in series [1] was found to be 404 µg/mL (≈ 1100 µM). Further, the CLhep predicted in [2] was 2 mL/min/kg; in [3], 27 mL/min/kg.

Take `Cc1cccc(Nc2cc(N[C@@H]3CCCC[C@@H]3N)nnc2C(N)=O)n1`: the concentration in solution in series [1] (solubility) was 471 µg/mL (≈ 1380 µM). Moreover, the figures for the CLhep predicted in series [2] and in [3] were 2 mL/min/kg and 27 mL/min/kg, respectively.

In the case of `COc1ccc(Nc2cc(N[C@@H]3CCOC[C@@H]3N)nnc2C(N)=O)nc1C(C)C`, the clearance in series [13] came to 42.2 mL/min/kg. In addition, in [14], the half-life is 1.96 h. In addition, the Vd in [15] came out at 3.67 L/kg. The AUC/dose in the series on Mus musculus [16] was 365 ng/mL.hr/(mg/kg). The same compound gave a bioavailability in [17] of 92%.

In the case of `COc1ccc(Nc2cc(NCCN)nnc2C(N)=O)nc1C(C)C`, the clearance in series [13] came to 16.7 mL/min/kg. In addition, the half-life in series [14] was 1.74 h. Also, in series [15], the Vd turned out to be 1.4 L/kg. Moreover, in the series on Mus musculus [16], the AUC/dose is on record as 609 ng/mL.hr/(mg/kg). The bioavailability in series [17] amounted to 61%.

In the case of `COc1ccc(Nc2cc(N[C@@H]3CCCC[C@@H]3N)nnc2C(N)=O)nc1OC`, the solubility in [1] is 522 µg/mL (≈ 1350 µM). Besides, the values for the CLhep predicted in [2] and in series [3] were 2 mL/min/kg and 14 mL/min/kg, respectively.

For `CCCc1nc(Nc2cc(NCCN)nnc2C(N)=O)ccc1OC`, in [13], the clearance was found to be 8.52 mL/min/kg. The half-life in [14] was 1.28 h. Also, the Vd in series [15] is 0.63 L/kg. Besides, in the series with Mus musculus [16], the AUC/dose is on record as 1470 ng/mL.hr/(mg/kg). This compound also yielded a bioavailability in series [17] of 75%.
